IC50 data for ten compounds are collected here from patent publication US5656654A, “Arylidene and heteroarylidene oxindole derivatives and process for their preparation” (Farmitalia Carlo Erba S.r.l., priority 1993, dated 1997).

The structures appear in SMILES notation.

For assay [1], the target named is T1, p45 v-abl kinase (Abelson murine leukemia virus, UniProt P00521).
T1 construct: by cited methods bacterially expressed (E. coli)
The assay is described as follows: p45 v-abl Kinase Assay ((Val^5)-Angiotensin II phosphorylation, in vitro). Format: biochemical. As for the experimental part:
p45 v-abl kinase purification. The enzyme used in our test was the p45 v-abl tyrosine kinase which represents the catalytic domain of the Abelson tyrosine kinase (isolated from the Abelson murine leukemia virus). The p45 v-abl kinase was produced and isolated as described by Wang et al. in J. Biol. Chem. 260, 64 (1985) and by Ferguson et al. in J. Biol. Chem. 260, 3652 (1985) and in Biochem. J. 257, 321 (1989).
p45 v-abl Kinase Assay. (Val^5)-Angiotensin II phosphorylation was performed by incubation with 40 ng of purified abl-kinase and (γ-^32 P)-ATP, in 50 μl of buffer containing Tris-HCl 25 mM, pH 8.0, MgCl2 10 mM and dithiothreitol 0.1 mM (kinase buffer). The reaction mixture was incubated for the indicated time at 30° C. and the reaction stopped by adding 50 μl of 5% trichloroacetic acid. After a brief incubation on ice, tubes were centrifuged. The supernatants were spotted on phosphocellulose paper squares (Whatman P-81) and washed extensively in acetic acid. The radioactivity bound to dried phosphocellulose squares was measured in a liquid scintillation counter. IC50 values were calculated from triplicate determinations of each experimental point. Each inhibitor was tested at concentrations ranging from […] in the presence of fixed concentrations of peptide (2 mM) and ATP (50 μM).
(§1) The inhibitory activity data for a representative group of compounds according to the present invention, obtained both in the in vitro p45 v-abl kinase assay and in the in vivo human chronic myeloid leukemia K 562 cell growth inhibition assay described above, are set out in following Table 1.

The test system of assay [2] is K562 cells (human chronic myeloid leukemia). The assay is described as follows: K562 cell growth inhibition assay ([^3-H]-Thymidine, headed In Vivo ASSAY). Format: cell-based. The note with it: K562 cells in suspension, 66 h, with or without 10% foetal calf serum. As for the experimental part: K562 cell growth inhibition assay. 1 ml of K562 cells, grown in suspension, were incubated for 66 h with or without 10% foetal calf serum in the presence of 1 μCi of [^3 -H]-Thymidine. Cells were harvested, washed three times in cold PBS and treated with 5% trichloroacetic acid for 5 min on ice. After a wash in ethanol: ether 2:1, the DNA was extracted by 0.5N NaOH for 2 h at room temperature. The extract was counted in a liquid scintillation counter.
as §1

T1 sequence (P00521 whole entry): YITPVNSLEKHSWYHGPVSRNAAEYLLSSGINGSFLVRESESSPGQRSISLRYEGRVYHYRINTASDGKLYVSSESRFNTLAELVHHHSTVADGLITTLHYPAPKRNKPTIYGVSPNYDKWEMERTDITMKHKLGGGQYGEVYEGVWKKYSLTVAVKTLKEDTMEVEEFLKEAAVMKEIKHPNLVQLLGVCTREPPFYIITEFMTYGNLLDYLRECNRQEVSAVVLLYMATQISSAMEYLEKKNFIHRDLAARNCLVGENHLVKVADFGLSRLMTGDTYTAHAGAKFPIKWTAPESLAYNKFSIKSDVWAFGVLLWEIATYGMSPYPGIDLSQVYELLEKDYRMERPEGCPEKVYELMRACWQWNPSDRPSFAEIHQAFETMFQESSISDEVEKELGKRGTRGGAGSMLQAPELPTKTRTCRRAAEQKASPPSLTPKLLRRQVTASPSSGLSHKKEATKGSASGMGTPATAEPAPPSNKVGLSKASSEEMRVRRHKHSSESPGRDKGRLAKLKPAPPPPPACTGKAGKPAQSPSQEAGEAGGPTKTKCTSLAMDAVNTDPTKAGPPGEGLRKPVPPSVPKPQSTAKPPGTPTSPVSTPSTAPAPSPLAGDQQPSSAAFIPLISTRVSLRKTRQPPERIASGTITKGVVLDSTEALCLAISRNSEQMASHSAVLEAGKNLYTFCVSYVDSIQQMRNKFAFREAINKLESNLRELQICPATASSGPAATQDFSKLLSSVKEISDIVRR

`O=C1Nc2ccc(Br)cc2C1=Cc1ccc(O)c2ncccc12` [FCE 27996, 5-bromo-3-[(8'-hydroxy-5'-quinolyl)methylene]-2-oxindole]: the IC50 was 2.6 µM in assay [1] and 0.62 µM in assay [2].

Take `Cc1[nH]c2ccccc2c1C=C1C(=O)Nc2ccccc21` [FCE 27566, 3-[(2'-methyl-3'-indolyl)methylene]-2-oxindole]: the IC50 worked out at 15.6 µM in assay [1] and 2.2 µM in assay [2].

In the case of `COc1ccc2[nH]cc(C=C3C(=O)Nc4ccc(N)cc43)c2c1` [FCE 28436, 5-amino-3-[(5'-methoxy-3'-indolyl)methylene]-2-oxindole], the half-maximal inhibitory concentration (IC50) turned out to be 0.305 µM in assay [1] and 14.5 µM in assay [2]. In the same order, the values of `O=C1Nc2ccc(O)cc2C1=Cc1ccc(O)c2c1CCCC2` [FCE 28337, 5-hydroxy-3-[(4'-hydroxy-1'-tetralyl)methylene]-2-oxindole] are 2.32 µM and 11.5 µM. In the same order, the values of `Nc1ccc2c(c1)C(=Cc1cc(O)c3c(c1O)CCCC3)C(=O)N2` [FCE 28360, 5-amino-3-[(1',4'-dihydroxy-2'-tetralyl)methylene]-2-oxindole] are 4.7 µM and 6.25 µM.

Turning to `COc1ccc2[nH]cc(C=C3C(=O)Nc4ccc(O)cc43)c2c1` [FCE 28359, 5-hydroxy-3-[(5'-methoxy-3'-indolyl)methylene]-2-oxindole], the IC50 in assay [1] was determined as 0.39 µM; in assay [2], 8.15 µM. In the same order, the values of `O=C1Nc2ccccc2C1=Cc1c[nH]c2ccc(O)cc12` [FCE 27866, 3-[(5'-hydroxy-3'-indolyl)methylene]-2-oxindole] are 5.2 µM and 8.75 µM. In the same order, the values of `COc1ccc2[nH]cc(C=C3C(=O)Nc4ccccc43)c2c1` [FCE 27564, 3-[(5'-methoxy-3'-indolyl)methylene]-2-oxindole] are 0.8 µM and 4.15 µM.

For the compound `Nc1ccc2c(c1)C(=Cc1ccc(O)c3ncccc13)C(=O)N2` [FCE 27518, 5-amino-3-[(8'-hydroxy-5'-quinolyl)methylene]-2-oxindole], the IC50 in assay [1] is 6.9 µM; in assay [2], 1.2 µM.

As for `N#Cc1ccc2[nH]cc(C=C3C(=O)Nc4ccccc43)c2c1` [FCE 27565, 3-[(5'-cyano-3'-indolyl)methylene]-2-oxindole], in assay [1], the IC50 is 2.4 µM.
